The values that follow come from paper PMC9822168, “The Use of Flavylium Salts as Dynamic Inhibitor Moieties for Human Cb5R” (Molecules, 2022).

In general, inhibition refers to the relative decrease from the control value, in per cent. What is called IC50 is the concentration at which inhibition is half-maximal.

For data set [1], the target named is T1, Cb5R in rat liver microsomes (Rattus norvegicus, UniProt P20070).
T1 construct: testing the action of compounds 1 and 5 against the Cb5R present in rat liver microsomes; from tissue; host or cells: rat liver microsomes
T1 sequence (P20070 1-301): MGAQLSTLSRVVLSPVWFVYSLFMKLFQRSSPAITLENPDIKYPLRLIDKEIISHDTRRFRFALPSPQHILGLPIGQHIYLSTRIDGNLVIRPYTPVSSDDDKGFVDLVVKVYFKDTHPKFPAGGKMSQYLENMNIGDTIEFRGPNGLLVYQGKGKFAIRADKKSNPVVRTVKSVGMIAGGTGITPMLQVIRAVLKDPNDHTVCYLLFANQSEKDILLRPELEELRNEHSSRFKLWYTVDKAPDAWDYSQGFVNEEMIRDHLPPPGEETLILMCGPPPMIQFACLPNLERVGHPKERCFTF
As to the kind of experiment: NADH: ferricyanide reductase activity in rat liver microsomes. Type of data set: biochemical. The following applies: for inhibition at 40 µM: 40 µM compound; for IC50: microsomes 5.6 µg/mL of protein; for Maximum inhibition of NADH: ferricyanide reductase activity in microsomes, E form / Maximum inhibition of NADH: ferricyanide reductase activity in microsomes, NE form: up to 100 µM compound. How it is done: To further assess the biological relevance of the tested compounds as inhibitors of the Cb5R, we measure the inhibition dependence of the NADH: ferricyanide reductase activity in rat liver microsomes (Figure 6a). All tested compounds follow a dose-dependent effect on this activity, although the maximum inhibition achieved for them was not the same as measured with the purified recombinant enzyme.
(§1) Livers were obtained from add livitum rats. Microsomes were prepared as previously performed, with slight differences. […] Buffer (3 mL) was used per gram of liver tissue. After homogenization, the lysate was centrifuged at 960× g for 10 min at 4 °C. The supernatant was collected and centrifuged at 9800× g for 20 min at 4 °C. Finally, the supernatant was centrifuged at 53170× g for 60 min at 4 °C. The microsomal sediment was resuspended in the same buffer and frizzed at −80 °C until use.
A general note: Microsomes from liver hold many membrane-bound enzymes, among them those of drug oxidation.

Another data set concerns the target T2, Cb5R from microsomes (Rattus norvegicus, UniProt P20070).
T2 construct: testing the action of compounds 1 and 5 against the Cb5R present in rat liver microsomes; from tissue; host or cells: rat liver microsomes
T2 sequence (P20070 1-301): T1 sequence (P20070 1-301)
As to the kind of experiment: NADH-dependent superoxide anion production (NADH: NBT reductase activity sensitive to SOD and CAT) of microsomes. The following applies: microsomes 5.2 µg/mL, without compound 2.3 ± 0.1; for Superoxide anion production of microsomes in presence of compound, NE form: non-equilibrated. It is filed as biochemical. On the procedure: Finally, we measured the effect of compounds 1 and 5 on the previously described NADH-dependent superoxide anion production of the Cb5R by quantifying the inhibitory effect of the compounds on the NADH: nitro blue tetrazolium (NBT) reductase activity of Cb5R from microsomes sensitive to superoxide dismutase (SOD) and catalase (CAT) (Figure 6c). The NADH: NBT reductase activity of Cb5R measured with microsomes (5.2 µg/mL) was 4.4 ± 0.1 µM/min.

In data set [2] the target is T1, Cb5R in rat liver microsomes. As to the kind of experiment: NADH: Cb5 reductase activity of rat liver microsomes. Type of data set: biochemical. The conditions noted are these: 40 µM compound, Cb5 5 μM, NADH 150 μM. On the procedure:
We measured the inhibition of the NADH: Cb5 reductase activity with a fixed concentration of the compounds (Figure 6b) and compared the values with those of the NADH: ferricyanide reductase activity in microsomes (Figure 6a).
as §1

Data set [3] in a line: UV-vis spectra of species interconversion in phosphate buffer pH 7.0. The following applies: 24 h in phosphate buffer pH 7.0, relative to value after 2 min incubation. Type of data set: physicochemical. On the procedure:
The stock solutions of the flavylium compounds were prepared in dimethyl sulfoxide (DMSO): H2O (99:1) containing 0.1M of HCl. To estimate the predominant species of the used compounds (Figure 1), 10 µL of stock solution of each compound was added to potassium phosphate buffer at pH 7.0. The UV-vis spectra were recorded immediately (Figure S1, black lines) and after 2 min (red lines). […] The spectral signatures, i.e., the observation of absorption bands in the visible and UV-vis regions, pointed out the existence of the quinoidal base and colorless hemiketal/chalcone species mixtures under non-equilibrated conditions.
Stock solutions of compounds at acid pH values (non-equilibrated (NE) in the media) and by incubation in phosphate buffer at pH 7.0 for 24 h were prepared, and their UV-vis was measured in phosphate buffer pH 7.0. As expected, the mole fraction of the quinoidal base of compounds 1 and 5 partially disappeared, leading to the formation of the respective trans-chalcone species after a 24 h incubation in phosphate buffer at pH 7.0 (Supplementary Figure S2). We monitored the spectra of compounds 1 and 5 (black and grey line, respectively) after immediate addition into phosphate buffer pH 7.0 (continuous line) or after incubation in this buffer for 24 h (dotted line). […]

In data set [4] the target is NADH: ferricytochrome b5 reductase. Also on record: method as in PMID 22542668. The conditions noted are these: cited from earlier work; for IC50: read-out: IC50 against NADH: ferricytochrome b5 reductase.
The mark [5] stands for this setting: equilibrated, read-out: Inhibition of NADH: ferricyanide reductase activity of microsomes, E form.
Where [6] appears, read: non-equilibrated, read-out: Inhibition of NADH: ferricyanide reductase activity of microsomes, NE form.
[7] abbreviates: equilibrated, read-out: IC50, NADH: ferricyanide reductase activity of microsomes, E form.
Where [8] appears, read: equilibrated, read-out: Inhibition of NADH: Cb5 reductase activity of microsomes, E form.
Where [9] appears, read: non-equilibrated, read-out: Inhibition of NADH: Cb5 reductase activity of microsomes, NE form.

Where two headings read alike, the source gives them in different places.

Take `Oc1ccc(-c2ccc3ccc(O)cc3[o+]2)cc1` [Compound 1]: the inhibition at 40 µM in data set [1] (setting [5]) was found to be 63.4 ± 3.6%; in data set [1] (setting [6]), 4.6 ± 4%; in data set [2] (setting [8]), 58.8 ± 1.5%; in data set [2] (setting [9]), 25 ± 5.3%. For the same molecule, the IC50 in data set [1] (setting [7]) was 18 ± 3.8 µM. The “Maximum inhibition of NADH: ferricyanide reductase activity in microsomes, E form” value in data set [1] (equilibrated) came to 85 ±2%. The “Maximum inhibition of NADH: ferricyanide reductase activity in microsomes, NE form” value in data set [1] (non-equilibrated) was found to be 11 ±7%. In addition, the “Superoxide anion production of microsomes in presence of compound, E form” value on Cb5R from microsomes (equilibrated) amounted to 1.4 ± 0.1 µM/min. The “Superoxide anion production of microsomes in presence of compound, NE form” value on Cb5R from microsomes was found to be 1.7 ± 0.1 µM/min. For the same molecule, the “Quinoidal base disappeared, forming the trans-chalcone” value in data set [3] is given as “ca. 40%”.

As for `O=c1c(O)c(-c2ccc(O)c(O)c2)oc2cc(O)cc(O)c12` [quercetin], in data set [4], the IC50 is 1.1 µM.

As for `Oc1cc(O)c2c(c1)O[C@H](c1ccc(O)c(O)c1)[C@@H](O)C2` [catechin], the IC50 in data set [4] was 4.5 µM.

Take `O=c1cc(-c2ccc(O)cc2)oc2cc(O)cc(O)c12` [apigenin]: the IC50 in data set [4] is 36 µM.

In the case of `Oc1cc(O)c2c(c1)O[C@H](c1ccc(O)c(O)c1)[C@H](O)C2` [epicatechin], in data set [4], the IC50 is 3.2 µM.

For `O=c1cc(-c2ccc(O)c(O)c2)oc2cc(O)cc(O)c12` [luteolin], the IC50 in data set [4] is 0.11 µM.

For `O=C1C[C@@H](c2ccc(O)cc2)Oc2cc(O)cc(O)c21` [Naringenin], the “Inhibition of Cb5R in vitro” value in data set [4] (in vitro studies) is on record as “did not inhibit”.

For `Oc1ccc2ccc(-c3ccc(O)c(O)c3)[o+]c2c1` [Compound 5], the inhibition at 40 µM in data set [1] (setting [5]) came out at 81.8 ± 2.3%; in data set [1] (setting [6]) it was 71 ± 4.7%; in data set [2] (setting [8]) it was 80.6 ± 0.8%; in data set [2] (setting [9]), 65.6 ± 2.9%. For the same molecule, the IC50 turned out to be 3.3 ± 0.4 µM in data set [1] (setting [7]) and 8 ± 2.2 µM in data set [1] (non-equilibrated, read-out: IC50, NADH: ferricyanide reductase activity of microsomes, NE form). For the same molecule, the “Maximum inhibition of NADH: ferricyanide reductase activity in microsomes, E form” value in data set [1] (equilibrated) is given as 81 ± 2%. For the same molecule, in data set [1] (non-equilibrated), the “Maximum inhibition of NADH: ferricyanide reductase activity in microsomes, NE form” value is recorded as 77 ± 2%. Also, the “Superoxide anion production of microsomes in presence of compound, NE form” value on Cb5R from microsomes was determined as 1.4 ± 0.1 µM/min. For the same molecule, the “Quinoidal base disappeared, forming the trans-chalcone” value in data set [3] is recorded as “ca. 40%”.
